Assay results published in patent US4281121A, “1,3,4-Thiadiazole-2-carboxylic acid derivatives, process for making the same and fungicidal and nematocidal compositions containing same” (Schering Aktiengesellschaft, priority 1978, dated 1981).

What was measured:
Piricularia oryzae = assay type: in vivo; settings: concentration of active agent 0.1 (percentages); 5 days
Tilletia caries = assay: Treatment of oat seeds infested with Tilletia caries (spore germination); assay type: in vivo
Venturia inaequalis = assay: Prophylactic leaf treatment of apples in open field test against Venturia inaequalis; assay type: in vivo; settings: 3 weeks
Botrytis cinerea [1] = assay: Prophylactic leaf treatment of tomato plants against Botrytis cinerea; assay type: in vivo; settings: concentration of 0.025 of the active agent (unit not given)
Helminthosporium gram = settings: 50 g active agent per 100 kg; about 5 weeks
Experimental: Treatment of barley seeds infested with Helminthosporium gram
After emergence, the plants were subjected to illumination for 12 hours per day. After about 5 weeks the infested plants were counted and the total number of plants for each test were also counted. The active agents tested were used as pulverulent compositions.

Pythium ultimum = assay: Threshold concentration test for use of the compounds against Pythium ultimum (infested soil, garden peas); assay type: in vivo; design: key to root evaluation (1-4): 4: white roots without fungous necrosis; 3: white roots, minor fungous necrosis; 2: brown roots, already more pronounced fungous necrosis; 1: heavy fungous necrosis, roots rotted; settings: for root evaluation (1-4): 3 weeks; for number of sound peas: 20 grains per dish, 3 weeks at 20-24° C.
Procedure, shortened: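 Pulverulent agents at 20% concentration mixed evenly into soil heavily infested with Pythium ultimum, then garden peas ('Wunder von Kelvedon', 20 per dish) sown at once. After three weeks at 20–24 °C in a hothouse, sound peas counted and roots scored on a 1–4 scale.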

[2] = system: Helminthosporium gramineum; assay: Seed treatment in open field tests for infestation by Helminthosporium gramineum (barley); assay type: in vivo; settings: summer barley; 50 g active agent/100 kg barley; about 3 months
Experimental: Seed treatment in open field tests for infestation by Helminthosporium gramineum
The active agents were used in the form of pulverulent compositions. After about 8 months in case of winter barley and after about 3 months in case of summer barley the infested plants were counted and the activity was calculated by the formula [formula]

Plasmopara viticola = assay: Prophylactic leaf treatment of grapevines in the hothouse against Plasmopara viticola; assay type: in vivo
Procedure, shortened: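 Grapevines (5–8 leaves) sprayed to runoff with compound as 20% spray powder, then after drying inoculated on leaf undersides with sporangial suspension (~20,000/ml). Incubated at 22–24 °C, saturated humidity, 3–4 days normal humidity (30–70%), then one day saturated; activity from mean % infested leaf area per treatment.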

Fusarium avenaceum [3] = assay: Threshold concentration test in case of Fusarium avenaceum (infested soil, garden peas); assay type: in vivo; settings: for number of sound peas: 20 grains per dish, 18 days at 20-24° C.; for root evaluation (1-4): 18 days
Procedure, shortened: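 Soil heavily infested with Fusarium avenaceum was mixed uniformly with a 20% powder formulation of active agent, then sown immediately with 20 garden pea seeds ('Wunder von Kelvedon') per dish. After 18 days in a greenhouse at 20° to 24° C., sound plants were counted and roots scored on a 1–4 scale.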

Penicillium digitatum = assay: Inhibition of fungus in a nutrient solution: Penicillium digitatum; assay type: cell-based; settings: 6 days at 21-23° C.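 Note: 0 means no fungus growth and higher grades mean more surface covered.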
Fusarium avenaceum [4] = assay: Inhibition of fungus in a nutrient solution: Fusarium avenaceum; assay type: cell-based; settings: 6 days at 21-23° C.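 Note: 0 means no fungus growth and higher grades mean more surface covered.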
Experimental: Inhibition of fungus in a nutrient solution
20 ml of a nutrient solution of grape juice and water (1:1) were filled into a glass vial of a 100 ml capacity and were mixed with the pulverulent active agents which appear from the subsequent table. Thereafter, the solution was inoculated with conidia (spores) of the test fungi.
After an incubation time of 6 days at 21° to 23° C. the fungus development on the surface of the nutrient solution was evaluated. The test fungi used were the following: Penicillium digitatum, Botrytis cinerea, Alternaria solani, Fusarium avenaceum.
The evaluation was carried out at a scale from 0 to 5 as follows: […]

Botrytis cinerea [5] = assay: Inhibition of fungus in a nutrient solution: Botrytis cinerea; assay type: cell-based; settings: 6 days at 21-23° C.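 Note: 0 means no fungus growth and higher grades mean more surface covered.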
Alternaria solani = assay: Inhibition of fungus in a nutrient solution: Alternaria solani; assay type: cell-based; settings: 6 days at 21-23° C.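 Note: 0 means no fungus growth and higher grades mean more surface covered.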
[6] = concentration of active agent 0.005 (unit not given)
[7] = concentration of active agent 0.025 (unit not given)
[8] = concentration of active agent 0.001 (unit not given)

SMILES	% activity (Piricularia oryzae) [%]	% activity (Tilletia caries; 20 g active agent per 100 kg) [%]	% activity (Tilletia caries; 50 g active agent per 100 kg) [%]	% activity (Botrytis cinerea [1]) [%]	% activity (Helminthosporium gram) [%]	root evaluation (1-4) (Pythium ultimum; 20 mg/l soil)	number of sound peas (Pythium ultimum; 20 mg/l soil)	root evaluation (1-4) (Pythium ultimum; 40 mg/l soil)	number of sound peas (Pythium ultimum; 40 mg/l soil)	root evaluation (1-4) (Pythium ultimum; 80 mg/l soil)	number of sound peas (Pythium ultimum; 80 mg/l soil)	% activity (Plasmopara viticola; [6]) [%]	% activity (Plasmopara viticola; [7]) [%]	number of sound peas (Fusarium avenaceum [3]; 25 mg/l soil)	root evaluation (1-4) (Fusarium avenaceum [3]; 25 mg/l soil)	number of sound peas (Fusarium avenaceum [3]; 50 mg/l soil)	root evaluation (1-4) (Fusarium avenaceum [3]; 50 mg/l soil)	number of sound peas (Fusarium avenaceum [3]; 100 mg/l soil)	root evaluation (1-4) (Fusarium avenaceum [3]; 100 mg/l soil)	% activity (Plasmopara viticola; [8]) [%]	further results
CCCNC(=O)c1nnc(S(C)(=O)=O)s1 [5-methylsulfonyl-1,3,4-thiadiazole-2-carboxylic acid-propylamide]	90	100	100	76	93	4	15	4	15	4	15	82	95								% activity (Tilletia caries; 10 g active agent per 100 kg): 99.5%; % activity (Venturia inaequalis; concentration of active agent 0.005 (in gram)): 98%; % activity (Venturia inaequalis; concentration of active agent 0.025 (in gram)): 99.7%; % activity [2]: 100%
CCCCCS(=O)(=O)c1nnc(C#N)s1 [5-pentylsulfonyl-1,3,4-thiadiazole-2-carbonitrile]			90	86									90	20	4	20	4	19	4		
CCC[S+]([O-])c1nnc(C(=O)NC(C)CC)s1 (stereo not drawn) [5-propylsulfinyl-1,3,4-thiadiazole-2-carboxylic acid-sec.-butylamide]		100	100	80	94							92	92	9	1	17	4	17	4	86	
CCCCCCNC(=O)c1nnc(S(=O)(=O)CCC)s1 [5-propylsulfonyl-1,3,4-thiadiazole-2-carboxylic acid-hexylamide]	95	100	100	78								98	100							88	
O=C1c2ccccc2C(=O)N1SC(Cl)(Cl)Cl [N-trichloromethylmercapto-phthalimide, reference compound]																					fungus development on the surface of the nutrient solution (0-5) (Penicillium digitatum; 0.002%): 4 (30 to 60% of the surface covered by the fungus turf); fungus development on the surface of the nutrient solution (0-5) (Penicillium digitatum; 0.004%): 4 (30 to 60% of the surface covered by the fungus turf); fungus development on the surface of the nutrient solution (0-5) (Fusarium avenaceum [4]; 0.002%): 4 (30 to 60% of the surface covered by the fungus turf); fungus development on the surface of the nutrient solution (0-5) (Fusarium avenaceum [4]; 0.004%): 4 (30 to 60% of the surface covered by the fungus turf); fungus development on the surface of the nutrient solution (0-5) (Botrytis cinerea [5]; 0.002%): 4 (30 to 60% of the surface covered by the fungus turf); fungus development on the surface of the nutrient solution (0-5) (Botrytis cinerea [5]; 0.004%): 3 (10 to 30% of the surface covered by the fungus turf); fungus development on the surface of the nutrient solution (0-5) (Alternaria solani; 0.002%): 4 (30 to 60% of the surface covered by the fungus turf); fungus development on the surface of the nutrient solution (0-5) (Alternaria solani; 0.004%): 4 (30 to 60% of the surface covered by the fungus turf)
O=C1C2CC=CCC2C(=O)N1SC(Cl)(Cl)Cl (stereo not drawn) [N-trichloromethylmercapto-tetrahydro-phthalimide, reference compound]						1	1	1	2	2	8										fungus development on the surface of the nutrient solution (0-5) (Penicillium digitatum; 0.002%): 4 (30 to 60% of the surface covered by the fungus turf); fungus development on the surface of the nutrient solution (0-5) (Penicillium digitatum; 0.004%): 4 (30 to 60% of the surface covered by the fungus turf); fungus development on the surface of the nutrient solution (0-5) (Botrytis cinerea [5]; 0.002%): 4 (30 to 60% of the surface covered by the fungus turf); fungus development on the surface of the nutrient solution (0-5) (Botrytis cinerea [5]; 0.004%): 4 (30 to 60% of the surface covered by the fungus turf); fungus development on the surface of the nutrient solution (0-5) (Alternaria solani; 0.002%): 4 (30 to 60% of the surface covered by the fungus turf); fungus development on the surface of the nutrient solution (0-5) (Alternaria solani; 0.004%): 4 (30 to 60% of the surface covered by the fungus turf)
